Measurements from publication PMC12067145 (ACS Medicinal Chemistry Letters, 2025).
pIC50: −log10 of the molar value. Like-named read-outs stand apart in the source and are kept apart here.

Columns and labels:
ChromatoLogD = format: physicochemical
Excerpt: 1 TREK-1 Inhibitory Activity and Lipophilicity of Analogues 10 | column: ChromatoLogD

human TREK-1 = biological target: T1, human TREK-1 (Homo sapiens, UniProt O95069); assay: TREK-1 thallium (Tl+) flux assay; details: for pIC50: read-out: h TREK-1 Tl+ IC50, thallium flux, hTREK-1/CHO
T1 sequence (O95069 1-426): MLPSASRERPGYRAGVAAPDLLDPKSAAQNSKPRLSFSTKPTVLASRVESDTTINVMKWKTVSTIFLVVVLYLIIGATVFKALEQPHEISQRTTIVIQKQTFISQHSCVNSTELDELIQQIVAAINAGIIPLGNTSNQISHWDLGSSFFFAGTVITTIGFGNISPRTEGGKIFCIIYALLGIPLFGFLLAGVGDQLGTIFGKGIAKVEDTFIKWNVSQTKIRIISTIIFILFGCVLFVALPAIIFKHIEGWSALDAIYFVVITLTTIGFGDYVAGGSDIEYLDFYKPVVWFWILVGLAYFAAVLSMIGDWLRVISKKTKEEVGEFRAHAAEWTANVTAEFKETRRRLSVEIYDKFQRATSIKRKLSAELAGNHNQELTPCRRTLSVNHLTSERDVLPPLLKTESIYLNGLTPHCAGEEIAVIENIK

[1] = Liver microsome intrinsic clearance (human); format: in vitro ADME; details: for CLint scaled at 1 µM: pH 7.4, human liver microsomes, read-out: LMS CLINT human
Description: (§1) After a 5 min preincubation, the reaction was initiated by the addition of NADPH (1 mM). At selected time intervals between 0 ~ 60 min (e.g. 0, 3, 7, 15, 25, 45 and/or 60 min), aliquots were taken and subsequently placed into a 96-well plate containing cold acetonitrile with an internal standard (50 ng/mL carbamazepine). Plates were then centrifuged at 3000 rcf (4 °C) for 10 min, and the supernatant was transferred to a separate 96-well plate and diluted 1:1 with water for LC/MS/MS analysis. The in vitro half-life (T 1/2, min, Eq. 1), intrinsic clearance (CLint, mL/min/kg, Eq. 2), and subsequent predicted hepatic clearance (CLhep, mL/min/kg, Eq. 3) were determined employing the following equations: […]
(§2) where k represents the slope from linear regression analysis of the natural log percent remaining of a test compound as a function of incubation time […]
(§3) (2) CLint = in vitroT1/2 x mg microsomes x gram liver x kg body wt ascale-up factors: of 20 (human) or 45 (rat) or 87.5 (mouse) […]
(§4) where Qh (hepatic blood flow, mL/min/kg) is 21 (human) or 70 (rat) or 90 (mouse).
(§5) LC/MS/MS Bioanalysis of Samples from Plasma Protein Binding and Intrinsic Clearance […]
(§6) Samples were analyzed on a Thermo Electron TSQ Quantum Ultra triple quad mass spectrometer (San Jose, CA) via electrospray ionization (ESI) with two Themo Electron Accella pumps (San Jose, CA), and a Leap Technologies CTC PAL autosampler (Carrboro, NC). Analytes were separated by gradient elution on a dual column system with two Thermo Hypersil Gold (2.1 x 30 mm, 1.9 µm) columns (San Jose, CA) thermostated at 40 °C. HPLC mobile phase A was 0.1% formic acid in water and mobile phase B was 0.1% formic acid in acetonitrile. The gradient started […]
(§7) for 0.2 min; returned to 10% B in 0.1 min. The total run time was 1.3 min and the HPLC flow rate was 0.8 mL/min. While pump 1 ran the gradient method, pump 2 equilibrated the alternate column isocratically at 10% B. Compound optimization, data collection, and processing were performed using Thermo Electron's QuickQuan software (v2.3) and Xcalibur (v2.0.7 SP1). […]

[2] = Rat IV:PBL PK cassette study / in vivo rat clearance; details: male, Sprague-Dawley, in vivo rat plasma clearance, read-out: rat CLp; for clearance: intravenous; for clearance at 24 h: iv, 0.2 mg/kg
[3] = Liver microsome intrinsic clearance (mouse); format: in vitro ADME; details: pH 7.4; mouse liver microsomes; read-out: LMS CLINT mouse
Description: as §1, §2, §3, §4, §5, §6, §7

[4] = Plasma protein binding (human); format: in vitro ADME; details: pH 7.4, read-out: PPB human (converted)
Description: (§8) 0.3% DMSO - ΔRatio of 1 µM control compound)x100
(§9) In vitro Plasma protein binding and Brain homogenate binding: Determination of fraction unbound (f u) in plasma was conducted in vitro via equilibrium dialysis using HTDialysis (HTD) membrane plates. The top half of the plate was filled with 100 uL of Dubelco’s Phosphate Buffered Saline, pH 7.4 (DPBS). Compounds were diluted into plasma from each species (5 µM final concentration), which was aliquoted in triplicate to the ‘bottom half’ of the prepared HTD plate wells. The HTD plate was sealed and incubated for 6 hours at 37 °C. Following incubation, each well (both top and bottom halves) were transferred (20 µL) to the corresponding wells of a 96-shallow-well (V-bottom) plate. The daughter plates were then matrix-matched (DPBS side wells received equal volume of plasma, and plasma side wells received equal volume of DPBS), and extraction solution (120 µL; acetonitrile containing 50 nM carbamazepine as IS) was added to all wells of both daughter plates to precipitate protein and extract test article. The plates were then sealed and centrifuged (3500 rcf) for 10 minutes at ambient temperature. Supernatant (60 µL) from each well of the daughter plates was then transferred to the corresponding wells of new daughter plates (96-shallow-well, V bottom) containing water (Milli-Q, 60 µL/well), and the plates were sealed in preparation for LC-MS/MS analysis (see LC-MS/MS analysis method below).
(§10) The unbound fraction (f u) was calculated following the equation below, and mean values for each species were calculated from 3 replicates. A similar approach was used to determine the degree of brain homogenate binding, which employed the same methodology and procedure with the following modifications: 1) a final compound concentration of 1 μM was used, 2) naïve rat brains were homogenized in DPBS (1:3 composition of brain: DPBS, w/w) using a Mini-Bead Beater™ machine in order to obtain brain homogenate, which was then treated in the same manner as the plasma samples in the previously described plasma protein binding assay. Fraction unbound for both plasma and brain samples was determined using Equation 4.

[5] = Plasma protein binding (mouse); format: in vitro ADME; details: pH 7.4, read-out: PPB mouse (converted)
Description: as §8, §9, §10

[6] = Liver microsome intrinsic clearance (rat); format: in vitro ADME; details: pH 7.4; rat liver microsomes; read-out: LMS CLINT rat
Description: as §1, §2, §3, §4, §5, §6, §7

Aqueous solubility = format: physicochemical; details: cyclopropyl amides versus N-Boc series
[7] = Plasma protein binding (species not stated); format: in vitro ADME; details: pH 7.4
Description: as §8
as §9, with “Supernatant (60 µL) from each well of the daughter plates was then transferred to the corresponding wells of new daughter plates (96-shallow-well, V bottom) containing water (Milli-Q, 60 µL/well), and the plates were sealed in preparation for LC-MS/MS analysis (see LC-MS/MS analysis method below).” left out
The unbound fraction (f u) was calculated following the equation below, and mean values for each species were calculated from 3 replicates. […] Fraction unbound for both plasma and brain samples was determined using Equation 4.

TREK-1 = details: cited from earlier work

In the case of `Cc1cc(OCc2ccccc2)ccc1NC(=O)c1cc(NC(=O)OC(C)(C)C)ccc1Cl` [Compound 6], the chromatographic logD (ChromatoLogD) was 4.9 and the “increase in TREK-1 potency” value (human TREK-1; versus HTS hit 5) was about 17 fold.

In the case of `Cc1cc(OCc2ccccc2)cnc1NC(=O)c1cc(NC(=O)OC(C)(C)C)ccc1Cl` [Compound 10a], the chromatographic logD (ChromatoLogD) was 4.4, the CLint scaled at 1 µM [1] was 137 mL/min/kg and the pIC50 (human TREK-1) was 6.25.

`Cc1nc(OCc2ccccc2)ccc1NC(=O)c1cc(NC(=O)OC(C)(C)C)ccc1Cl` [Compound 10b] showed a chromatographic logD (ChromatoLogD) of 5.

Compound `Cc1nc(OCc2ccccc2)cnc1NC(=O)c1cc(NC(=O)OC(C)(C)C)ccc1Cl` [Compound 10c] has a chromatographic logD (ChromatoLogD) of 4.8 and a clearance [2] of 135 mL/min/kg.

With `Cc1cc(C#Cc2ccccc2)cnc1NC(=O)c1cc(NC(=O)OC(C)(C)C)ccc1Cl` [Compound 11] the CLint scaled at 1 µM [1] was 13 mL/min/kg, the “lowering of human microsomal intrinsic clearance” value ([1]; versus 10a) was 10 fold and the CLint scaled at 1 µM [3] was 34 mL/min/kg. For the same compound, the fraction unbound at 6 h, 5 µM [4] was 0.005, the fraction unbound at 6 h, 5 µM [5] was 0.013 and the “increase in TREK-1 potency” value (human TREK-1; versus 10a) was about 4 fold.

`Cc1nc(C#Cc2ccccc2)cnc1NC(=O)c1cc(NC(=O)OC(C)(C)C)ccc1Cl` [Compound 12] gave a clearance [2] of 25 mL/min/kg.

In the case of `CC(C)(C)OC(=O)Nc1ccc(Cl)c(C(=O)Nc2ncc(C#Cc3ccccc3)cc2F)c1` [Compound 13a], the CLint scaled at 1 µM [1] was 10 mL/min/kg, the CLint scaled at 1 µM [3] was 6 mL/min/kg and the fraction unbound at 6 h, 5 µM [4] was 0.002. It also gave a fraction unbound at 6 h, 5 µM [5] of 0.011.

`CC(C)(C)OC(=O)Nc1ccc(Cl)c(C(=O)Nc2ncc(C#Cc3ccccc3)cc2Cl)c1` [Compound 13b] gave a fraction unbound at 6 h, 5 µM [5] of under 0.001.

For `Cc1cc(C#Cc2ccccc2F)cnc1NC(=O)c1cc(NC(=O)OC(C)(C)C)ccc1Cl` [Compound 14a], the CLint scaled at 1 µM [1] was 13 mL/min/kg, the CLint scaled at 1 µM [3] was 13 mL/min/kg and the pIC50 (human TREK-1) was 6.27.

In the case of `Cc1cc(C#Cc2cccc(F)c2)cnc1NC(=O)c1cc(NC(=O)OC(C)(C)C)ccc1Cl` [Compound 14b], the CLint scaled at 1 µM [1] was 20 mL/min/kg, the CLint scaled at 1 µM [3] was 40 mL/min/kg and the fraction unbound at 6 h, 5 µM [4] was under 0.001. For the same compound, the fraction unbound at 6 h, 5 µM [5] was under 0.001.

`Cc1cc(C#Cc2ccncc2)cnc1NC(=O)c1cc(NC(=O)OC(C)(C)C)ccc1Cl` [Compound 14d] showed a CLint scaled at 1 µM [1] of 27 mL/min/kg and a CLint scaled at 1 µM [3] of 78 mL/min/kg.

`Cc1cc(C#Cc2ccccc2)cnc1NC(=O)c1cc(NC(=O)C2CC2)ccc1Cl` [Compound 15a] showed a CLint scaled at 1 µM [1] of 13 mL/min/kg, a CLint scaled at 1 µM [3] of 69 mL/min/kg and a CLint scaled at 1 µM [6] of 25 mL/min/kg. For the same compound, the “aqueous solubility (in words)” value (Aqueous solubility) was “no improvement on aqueous solubility”, the clearance at 24 h [2] was 12 mL/min/kg and the fraction unbound at 6 h, 5 µM [7] was under 0.003. The pIC50 (human TREK-1) was 6.74.

`Cc1cc(C#Cc2ccc(F)cc2)cnc1NC(=O)c1cc(NC(=O)C2CC2)ccc1Cl` [Compound 15b] showed a CLint scaled at 1 µM [1] of 10 mL/min/kg, a CLint scaled at 1 µM [3] of 50 mL/min/kg and a CLint scaled at 1 µM [6] of 10 mL/min/kg. The “aqueous solubility (in words)” value (Aqueous solubility) was “no improvement on aqueous solubility”, the clearance at 24 h [2] was 1.4 mL/min/kg and the fraction unbound at 6 h, 5 µM [7] was under 0.003.

In the case of `Cc1ccccc1CC1OC(=O)c2cc(C3CCNCC3)ccc21` (centres unmarked) [Cpd8], the pIC50 (TREK-1) is listed as 6.09.

In the case of `O=C(CSc1ccc2ccccc2n1)NNC(=O)c1ccc(Cl)cc1` [TKIM], the pIC50 (TREK-1; state-dependent TREK-1 inhibitor) is listed as 5.53.
